What all share (type): cell-based
One assay relates to MIA PaCa-2 cells. Description: 72-h cytotoxicity (MTS), MIA PaCa-2. The settings on record: MIA PaCa-2, 72-h incubation. Here is the method:
(§1) Cells were seeded in wells of a 96-well plate (6000 cells/well) and incubated overnight to allow for cell adherence. On the second day, 100 μL complete medium containing VcMMAE and Sgc8c-M (400, 200, 100, 50, 25, 12.5, and 6.25 nM), as well as MMAE (5, 2.5, 1.25, 0.625, 0.3125, 0.15625, and 0.078125 nM), were added to wells of a 96-well plate for an additional 72-h incubation at 37 °C. At the end of incubation, 100 μL of CellTiter 96® Aqueous One Solution Cell Proliferation Assay (MTS, Promega) solution (prepared by mixing 2 mL MTS with 9 mL of complete medium) were added to each well. The plates were then incubated for an additional 1–2 h to allow for the formation of formazan crystals. The absorbance of each well was measured at 490 nm using a Multi-Mode Microplate Reader (TECAN, SPARK) to assess cell viability. Cell viability was calculated as [OD490 (treatment) - OD490 (blank)]/[OD490 (nontreatment) - OD490 (blank)] × 100%.

In another assay the test system is HT-29 cells. Briefly: 72-h cytotoxicity (MTS), HT-29. The settings on record: HT-29, 72 h. Here is the method:
as §1

Another assay has as its system OVCAR3 cells. Description: 72-h cytotoxicity (MTS), OVCAR3. As to conditions: OVCAR3, 72 h. As for the experimental part: as §1

Drawing on article PMC12457637, “An aptamer-drug conjugate for promising cancer therapy with comprehensive evaluation from rodents to non-human primates” (Signal Transduction and Targeted Therapy, 2025), this text covers IC50 for one compound.

Each structure is given as a SMILES string. Starred links: 1 amine or outer side, 2 acyl side, 3 side chain; linkers in the order of their positions; H or OH if unused. Non-standard residues stand in square brackets, D forms with d. Residues, ends and D or L forms follow the SMILES beside them. *: point of attachment. Dolaproine = CO[C@@H]([C@@H]1CCCN1)[C@@H](C)C(=O)O; Hexanoyl(6-maleimido) = O=C1C=CC(=O)N1CCCCCC(=O)*; Dil = CC[C@H](C)[C@H](NC)[C@@H](CC(=O)O)OC; PABC = O=C(OCc1ccc(N[*:1])cc1)[*:2]; X1 = C[C@@H](N*)[C@@H](O)c1ccccc1; Cit = NC(=O)NCCC[C@H](N)C(=O)O; NMeV = CN[C@H](C(=O)O)C(C)C

The IC50 is the concentration at which inhibition is half-maximal. For `CC[C@H](C)[C@@H]([C@@H](CC(=O)N1CCC[C@H]1[C@H](OC)[C@@H](C)C(=O)N[C@H](C)[C@@H](O)c1ccccc1)OC)N(C)C(=O)[C@@H](NC(=O)[C@H](C(C)C)N(C)C(=O)OCc1ccc(NC(=O)[C@H](CCCNC(N)=O)NC(=O)[C@@H](NC(=O)CCCCCN2C(=O)C=CC2=O)C(C)C)cc1)C(C)C` [VcMMAE, MC-VC-PAB-MMAE] ({Hexanoyl(6-maleimido)}-V[Cit][PABC][NMeV]V[Dil][Dolaproine]-X1), the IC50 in the assay on MIA PaCa-2 cells is 187 nM; in the assay with HT-29 cells, 203 nM; in the assay on OVCAR3 cells, 105 nM.
